Among the data in PubChem BioAssay (NCI) are GI50 and TGI values, retold here.

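Cultured in 96-well plates, cells were exposed to test compound for 48 hours across five concentrations. GI50 is the concentration that inhibits growth by half. Definition used: TGI = concentration required for complete inhibition of growth.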

Some test systems named below: EKVX NSCLC; A498 renal; SK-MEL-28 melanoma; OVCAR-4 ovarian; MOLT-4 leukemia; MCF7 breast; NCI-H522 lung; SNB-19 CNS; DU-145 prostate; RPMI-8226 leukemia.
Holding throughout (assay): DTP human tumour cell line panel, 48 h

By GI50 is commonly meant the concentration giving 50% growth inhibition. What is called TGI is the concentration giving total growth inhibition. Read a low TGI as more potent growth arrest. As to `COc1cc2c(cc1OC)-c1c(c3ccc([N+](=O)[O-])cc3c(=O)n1CCCN=[N+]=[N-])C2=O`, the GI50 was above 100 µM with EKVX NSCLC; 40.7 µM with A498 renal; above 100 µM in the assay with SK-MEL-28 melanoma; above 100 µM in the assay on OVCAR-4 ovarian; 23.3 µM in the assay on MOLT-4 leukemia; 0.556 µM with MCF7 breast. The results for the GI50 with NCI-H522 lung, in the assay on SNB-19 CNS and in the assay on DU-145 prostate were 11.7 µM, above 100 µM and 86.1 µM, respectively. Moreover, the concentration for total growth inhibition (TGI) in the assay on EKVX NSCLC, in the assay with A498 renal, in the assay on SK-MEL-28 melanoma, in the assay on OVCAR-4 ovarian, in the assay with MOLT-4 leukemia and in the assay on MCF7 breast was above 100 µM each time. Besides, the TGI in the assay with NCI-H522 lung, in the assay with SNB-19 CNS and in the assay on DU-145 prostate was above 100 µM each time.
Consider `CCN(CC)CCNc1ccc(N=Nc2cnc3ccccc3c2)c2ccccc12`, for which the GI50 was 1.65 µM in the assay on A498 renal; 1.79 µM in the assay on SK-MEL-28 melanoma; 1.85 µM in the assay on OVCAR-4 ovarian; 1.56 µM with MOLT-4 leukemia; 1.37 µM in the assay with MCF7 breast; 1.91 µM in the assay on NCI-H522 lung. The GI50 was 2.06 µM in the assay on SNB-19 CNS and 1.83 µM with DU-145 prostate. For the same compound, the concentration for total growth inhibition (TGI) in the assay on A498 renal turned out to be 3.05 µM; with SK-MEL-28 melanoma, 3.29 µM; in the assay with OVCAR-4 ovarian, 3.88 µM; in the assay on MOLT-4 leukemia, 3.03 µM; in the assay with MCF7 breast, 2.7 µM; in the assay on NCI-H522 lung it was 3.54 µM. The total growth inhibition concentration (TGI) in the assay on SNB-19 CNS amounted to 3.97 µM; in the assay with DU-145 prostate, 3.22 µM.
Consider `NS(=O)(=O)c1ccc(-n2nc(-c3ccccc3)cc2-c2cc(O)ccc2O)cc1`, for which the GI50 in the assay with EKVX NSCLC is above 100 µM; with SK-MEL-28 melanoma, 94.3 µM; in the assay with MOLT-4 leukemia it was 8.71 µM; with MCF7 breast, 69.4 µM; with NCI-H522 lung it was above 100 µM; in the assay with SNB-19 CNS, above 100 µM. The concentration for total growth inhibition (TGI) in the assay with EKVX NSCLC, with SK-MEL-28 melanoma, in the assay with MOLT-4 leukemia, in the assay with MCF7 breast, in the assay with NCI-H522 lung and with SNB-19 CNS was above 100 µM in each case.
As to `C#Cc1cccc(Nc2ncnc3ccc(-c4cnc(N)nc4)cc23)c1`, the concentration for 50% growth inhibition (GI50) was 0.242 µM in the assay on EKVX NSCLC; 3.2 µM in the assay with SK-MEL-28 melanoma; 2.59 µM with OVCAR-4 ovarian; 1.43 µM in the assay on RPMI-8226 leukemia; 1.8 µM in the assay with MCF7 breast; 2.11 µM with NCI-H522 lung. In addition, the results for the GI50 with SNB-19 CNS and in the assay on DU-145 prostate were 3.15 µM and 0.744 µM, respectively. In addition, the concentration for total growth inhibition (TGI) turned out to be 2.93 µM with EKVX NSCLC; 16 µM in the assay on SK-MEL-28 melanoma; 14.8 µM with OVCAR-4 ovarian; 5.41 µM in the assay with RPMI-8226 leukemia; 12.2 µM in the assay on MCF7 breast; 11.8 µM in the assay with NCI-H522 lung. Moreover, the TGI was found to be 21.5 µM with SNB-19 CNS and 14.6 µM in the assay with DU-145 prostate.
In the case of `COC1/C=C/OC2(C)Oc3c(C)c(O)c4c(O)c(c(/C=N/N(c5ccccc5)c5ccccc5)c(O)c4c3C2=O)NC(=O)C(C)=C/C=C/C(C)C(O)C(C)C(O)C(C)C(OC(C)=O)C1C` (stereo unspecified), the GI50 with EKVX NSCLC is 2.78 µM; in the assay on A498 renal it was 1.63 µM; in the assay with SK-MEL-28 melanoma, 1.07 µM; in the assay with OVCAR-4 ovarian it was 1.95 µM; in the assay with RPMI-8226 leukemia, 1.16 µM; in the assay on MCF7 breast it was 1.62 µM. Also, the GI50 is 0.983 µM with NCI-H522 lung, 2.64 µM in the assay with SNB-19 CNS and 2.37 µM in the assay on DU-145 prostate. Further, the TGI was determined as 11.3 µM in the assay on EKVX NSCLC; 7.42 µM in the assay on A498 renal; 2.43 µM with SK-MEL-28 melanoma; 7.6 µM in the assay on OVCAR-4 ovarian; 4.42 µM with RPMI-8226 leukemia; 6.58 µM in the assay with MCF7 breast. Moreover, the TGI in the assay on NCI-H522 lung turned out to be 2.19 µM; in the assay with SNB-19 CNS, 12.1 µM; in the assay on DU-145 prostate, 7.96 µM.
On to `COc1ccc(-c2nsc3c2NC(=O)CC3c2cccc(F)c2)cc1` (stereo unspecified), for which the GI50 in the assay on SK-MEL-28 melanoma was 7.37 µM; in the assay on OVCAR-4 ovarian it was 50.2 µM; in the assay on RPMI-8226 leukemia, 4.18 µM; in the assay with MOLT-4 leukemia, 5 µM; with MCF7 breast, 3.89 µM; with NCI-H522 lung, 3.39 µM. In addition, the results for the GI50 in the assay with SNB-19 CNS and with DU-145 prostate were 5.91 µM and 5.29 µM, respectively. Moreover, the concentration for total growth inhibition (TGI) with SK-MEL-28 melanoma, with OVCAR-4 ovarian, in the assay with RPMI-8226 leukemia, in the assay with MOLT-4 leukemia, in the assay on MCF7 breast and in the assay on NCI-H522 lung was above 100 µM in each case. Besides, the total growth inhibition concentration (TGI) with SNB-19 CNS and in the assay with DU-145 prostate was above 100 µM each time.
As to `O=C1/C=C/[C@@H](O)[C@@H]2C[C@@H](O)C[C@H]2/C=C/CCC[C@H](CCc2ccc(NC(=S)Nc3ccc4c(c3)C(=O)OC43c4ccc(O)cc4Oc4cc(O)ccc43)cc2)O1`, the 50% growth inhibitory concentration (GI50) with EKVX NSCLC was 0.409 µM; in the assay with A498 renal, 0.141 µM; in the assay on SK-MEL-28 melanoma, 0.263 µM; in the assay with OVCAR-4 ovarian, 0.333 µM; in the assay with RPMI-8226 leukemia it was 0.339 µM; in the assay on MOLT-4 leukemia, 0.432 µM. The figures for the GI50 in the assay on NCI-H522 lung, in the assay with SNB-19 CNS and in the assay with DU-145 prostate were 1.6 µM, 0.59 µM and 2.81 µM, respectively. Further, the TGI with EKVX NSCLC is above 100 µM; with A498 renal, 0.458 µM; in the assay with SK-MEL-28 melanoma, 0.815 µM; in the assay with RPMI-8226 leukemia it was 2.39 µM; in the assay on MOLT-4 leukemia, 4.07 µM; with NCI-H522 lung, 5.24 µM. For the same compound, the total growth inhibition concentration (TGI) in the assay on SNB-19 CNS and in the assay with DU-145 prostate was above 100 µM throughout.
For the compound `Cc1cc(C(=O)CC(Cl)=C(Cl)Cl)c(Cl)cc1Cl`, the GI50 in the assay with EKVX NSCLC was 19 µM; in the assay on A498 renal, 18.2 µM; with SK-MEL-28 melanoma it was 33.5 µM; with OVCAR-4 ovarian it was 27.6 µM; with RPMI-8226 leukemia, 16.6 µM; in the assay on MCF7 breast, 29.1 µM. Further, the GI50 in the assay with NCI-H522 lung was 22.6 µM; with SNB-19 CNS, 35.4 µM; in the assay with DU-145 prostate, 16 µM. Moreover, the concentration for total growth inhibition (TGI) in the assay with EKVX NSCLC was 47.7 µM; in the assay with A498 renal, 51.5 µM; in the assay on SK-MEL-28 melanoma it was above 100 µM; in the assay on OVCAR-4 ovarian it was 72.3 µM; with RPMI-8226 leukemia, 40.8 µM; with MCF7 breast it was above 100 µM. Further, the TGI with NCI-H522 lung is 69.4 µM; in the assay with SNB-19 CNS it was above 100 µM; with DU-145 prostate it was 40.4 µM.
